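All cell lines were grown in 96-well plates and treated with compound for 48 hours. GI50 = concentration required for 50% inhibition of growth.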 The source made the active and inactive calls. Cut-off read from the data, not from the text of the source: active = GI50 up to about 1.1 µM and inactive = higher.
Columns and labels:
Assay in all cases: NCI-60 cell line screen, 48 h
[1] = test system: ACHN
[2] = test system: CAKI-1
[3] = test system: COLO 205
[4] = test system: HCC 2998
[5] = test system: HOP-62
[6] = test system: K562
[7] = test system: M14
[8] = test system: NCI-H23
[9] = test system: NCI-H522
[10] = test system: OVCAR-8
[11] = test system: SF-268
[12] = test system: SK-MEL-5
[13] = test system: SN12C
[14] = test system: SNB-19
[15] = test system: SW-620
[16] = test system: TK-10
[17] = test system: U-251
[18] = test system: UACC-257
[19] = test system: UO-31
[20] = test system: HOP-92

Measured: GI50

COc1ccc(/C=C/C(=O)C(C)(C)C)cc1OC
inactive: [1] > 100 µM | [2] 78 µM | [3] > 100 µM | [4] > 100 µM | [5] > 100 µM | [6] 36.7 µM | [7] > 100 µM | [8] 41.5 µM | [9] 34.8 µM | [10] > 100 µM | [11] 78.2 µM | [12] 54.1 µM | [13] 65.8 µM | [14] > 100 µM | [15] 79.4 µM | [16] > 100 µM | [17] > 100 µM | [18] 63.5 µM | [19] > 100 µM

Cc1c2ccccc2c(CO)c2cc(F)c3ccccc3c12
inactive: [1] 19.5 µM | [2] 25.4 µM | [3] 15.6 µM | [4] 50.6 µM | [5] 31.5 µM | [20] 32.4 µM | [6] 23.5 µM | [8] 36.5 µM | [9] 12.9 µM | [10] 19.6 µM | [11] 24.5 µM | [12] 43.9 µM | [13] 17.3 µM | [14] 30 µM | [15] 37.5 µM | [16] 37.4 µM | [17] 21.3 µM | [18] 47.3 µM | [19] 40 µM

Cc1ccc(/N=N/C(C2=NC(=O)CS2)c2nc3ccccc3[nH]2)cc1 (stereo unspecified)
inactive: [1] > 100 µM | [2] > 100 µM | [3] > 100 µM | [5] 27.2 µM | [20] > 100 µM | [6] > 100 µM | [7] > 100 µM | [8] > 100 µM | [9] > 100 µM | [10] > 100 µM | [11] 38.5 µM | [12] > 100 µM | [13] > 100 µM | [14] > 100 µM | [15] > 100 µM | [16] > 100 µM | [17] > 100 µM | [18] > 100 µM | [19] > 100 µM

Cc1cn(C2CC(n3cc(Cn4ccc(=O)[nH]c4=O)nn3)C(CO)O2)c(=O)[nH]c1=O (stereo unspecified)
inactive: [1] > 100 µM | [2] > 100 µM | [3] > 100 µM | [4] > 100 µM | [5] > 100 µM | [20] > 100 µM | [7] > 100 µM | [8] > 100 µM | [10] > 100 µM | [11] > 100 µM | [12] > 100 µM | [13] > 100 µM | [14] > 100 µM | [15] > 100 µM | [16] > 100 µM | [17] > 100 µM | [18] > 100 µM | [19] > 100 µM

Cc1ccc2c(O)cc(-c3ccc(F)cc3)nc2n1
inactive: [1] 42.6 µM | [2] 42 µM | [3] 17.2 µM | [4] 44 µM | [5] 48.8 µM | [20] 19.7 µM | [6] 22 µM | [7] 47.6 µM | [8] 41.3 µM | [9] 24.9 µM | [10] 51.1 µM | [11] 52.7 µM | [13] 52 µM | [14] 65.9 µM | [15] 28.6 µM | [16] 46.6 µM | [18] 34.1 µM | [19] 59.2 µM

NC(=O)c1ncn2c1CNC(=O)C2
inactive: [1] > 100 µM | [2] > 100 µM | [3] > 100 µM | [4] > 100 µM | [5] > 100 µM | [20] > 100 µM | [6] > 100 µM | [7] > 100 µM | [8] > 100 µM | [9] > 100 µM | [10] > 100 µM | [11] > 100 µM | [12] > 100 µM | [13] > 100 µM | [14] > 100 µM | [15] > 100 µM | [16] > 100 µM | [17] > 100 µM | [18] > 100 µM | [19] > 100 µM

Nc1nc(Cl)cc(NCCCNc2cc(Cl)nc(N)n2)n1
inactive: [3] > 100 µM | [4] > 100 µM | [5] > 100 µM | [20] > 100 µM | [6] > 100 µM | [7] > 100 µM | [8] > 100 µM | [10] > 100 µM | [11] > 100 µM | [12] > 100 µM | [13] > 100 µM | [15] > 100 µM | [16] > 100 µM | [17] > 100 µM | [18] > 100 µM | [19] > 100 µM

CCCCCCNC(=O)C(C)C1CCC2(C)C=CC(=O)C(C)=C2C1O (stereo unspecified)
inactive: [2] > 100 µM | [3] > 100 µM | [4] > 100 µM | [5] > 100 µM | [20] 45.2 µM | [6] 68.5 µM | [8] > 94 µM | [9] 86.3 µM | [10] > 100 µM | [11] > 100 µM | [12] > 74.1 µM | [13] > 100 µM | [14] > 100 µM | [15] > 100 µM | [17] > 100 µM | [18] > 94.8 µM | [19] > 89.9 µM

Source: ChEMBL document CHEMBL1201862, “PubChem BioAssay data set” (2004)
